The IC50 is the point on the concentration scale where inhibition reaches its midpoint.

We go through ten compounds from US9617267B2, “Compounds and methods for kinase modulation, and indications therefor” (Plexxikon Inc., priority 2009, dated 2017).

Molecules are shown by their SMILES. Like-named read-outs stand apart in the source and are kept apart here.

Series [1] has as its target CYP3A4(BFC) (Homo sapiens (Human), UniProt P08684). The series is described as follows: CYP enzyme inhibition, fluorescent substrate BFC. The note with it: read-out: Cyp IC50 3A4(BFC); CYP3A4, substrate BFC. Put shortly:
(§1)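 Human CYP activity was followed by the fluorescence of the metabolized product of a known substrate, which falls as metabolism is inhibited. Compounds from 100 mM DMSO stocks were serially diluted 1:1 over 10 points in co-factor mix and preincubated 10 min at 37 °C. IC50 was fitted from signal versus concentration.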

The target of series [2] is CYP2C9 (Homo sapiens (Human), UniProt P11712). The series can be described thus: CYP enzyme inhibition, fluorescent substrate (MFC). The note with it: read-out: Cyp IC50 2C9; CYP2C9, substrate MFC. The method in brief:
as §1

Series [3] has as its target CYP1A2 (Homo sapiens (Human), UniProt P05177). The series is described as follows: CYP enzyme inhibition, fluorescent substrate (CEC). The method in brief: (§2)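 Ten-point 1:1 compound dilutions in NADPH-regenerating cofactor mix, pre-incubated 10 min at 37 °C before enzyme/substrate addition: CYP1A2 0.5 pmol with 5 μM CEC, 15 min, 409 ex/460 em; CYP2D6 1.5 pmol with 1.5 μM AMMC, 30 min, 409 ex/530 em. IC50 from fluorescent product vs concentration.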

Series [4] addresses CYP2D6 (Homo sapiens (Human), UniProt P10635). The series is described as follows: CYP enzyme inhibition, fluorescent substrate (AMMC). Format: in vitro ADME. The note with it: read-out: Cyp IC50 2D6. The method in brief:
as §2

In series [5] the target is CYP2C19 (Homo sapiens (Human), UniProt P33261). The series can be described thus: CYP enzyme inhibition, fluorescent substrate (CEC). The note with it: read-out: Cyp IC50 2C19; CYP2C19, substrate CEC. The method in brief: as §1
Sequence of CYP2C19 (P33261 whole entry): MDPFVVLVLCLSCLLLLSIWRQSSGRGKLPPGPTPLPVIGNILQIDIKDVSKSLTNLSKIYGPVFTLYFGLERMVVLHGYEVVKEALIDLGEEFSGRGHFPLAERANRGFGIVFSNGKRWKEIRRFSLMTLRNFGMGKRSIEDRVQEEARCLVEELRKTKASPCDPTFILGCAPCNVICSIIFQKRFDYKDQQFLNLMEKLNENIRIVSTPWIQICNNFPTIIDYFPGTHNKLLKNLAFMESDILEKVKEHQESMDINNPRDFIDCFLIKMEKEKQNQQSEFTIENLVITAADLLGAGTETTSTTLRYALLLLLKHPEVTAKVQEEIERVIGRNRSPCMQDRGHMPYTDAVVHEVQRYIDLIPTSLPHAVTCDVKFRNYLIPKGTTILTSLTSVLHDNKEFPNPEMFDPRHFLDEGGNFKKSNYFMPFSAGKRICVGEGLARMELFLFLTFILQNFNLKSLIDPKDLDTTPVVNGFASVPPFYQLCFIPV
The target in series [6] is CYP3A4(BQ) (Homo sapiens (Human), UniProt P08684). The series can be described thus: CYP enzyme inhibition, fluorescent substrate BQ. The method, then: CYP (Cytochrome P450) enzymes are the major drug metabolizing enzymes present in the liver. The inhibition of CYP enzyme activity (IC50) for each of CYP1A2, CYP2C19, CYP2C9, CYP2D6, CYP3A4(BFC) and CYP3A4(BQ) is determined for compounds, where inhibition of metabolism of a known substrate leads to a decrease in the fluorescence of the metabolized product. The fluorescence of the product is monitored as a function of compound concentration.
Sequence of CYP3A4(BQ) (P08684 whole entry): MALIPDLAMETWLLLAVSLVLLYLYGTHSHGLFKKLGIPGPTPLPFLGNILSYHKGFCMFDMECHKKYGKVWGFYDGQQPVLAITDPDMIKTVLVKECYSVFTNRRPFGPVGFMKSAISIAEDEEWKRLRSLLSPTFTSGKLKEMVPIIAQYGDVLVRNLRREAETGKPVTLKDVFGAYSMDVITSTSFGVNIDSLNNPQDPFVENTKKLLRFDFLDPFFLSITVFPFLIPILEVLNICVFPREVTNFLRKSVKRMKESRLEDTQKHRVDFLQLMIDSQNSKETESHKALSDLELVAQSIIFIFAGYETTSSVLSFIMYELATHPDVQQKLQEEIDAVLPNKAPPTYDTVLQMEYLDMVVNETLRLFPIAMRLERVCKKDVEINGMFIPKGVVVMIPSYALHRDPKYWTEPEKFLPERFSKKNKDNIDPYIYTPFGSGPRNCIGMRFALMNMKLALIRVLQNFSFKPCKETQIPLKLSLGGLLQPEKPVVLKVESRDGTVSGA
Compounds are dissolved in dimethyl sulfoxide to a concentration of 100 mM. These are diluted 1 μL into 82 μL of acetonitrile. […] These are then serially diluted 1:1 (160 μL to 160 μL co-factor mix) for a total of 10 points. A 10 μL aliquot of this final mixture is dispensed into 384 well assay plates and incubated for 10 minutes at 37° C. […] Assay plates are incubated at 37° C. […] The signal versus compound concentration is used to determine the IC50. The enzymes and substrates for this assay are obtained from BD Biosciences.

Series [7] in a line: Relative solubility by turbidity threshold concentration in aqueous buffers (pH 1.5, 4.5, 6.8, 7.4). The note with it: for turbidity threshold (L, M, H) 1.4: pH 1.4 [sic] (method: SGF pH 1.5); for turbidity threshold (L, M, H) 4.5: pH 4.5 (SIF); for turbidity threshold (L, M, H) 6.8: pH 6.8 (SIF); for turbidity threshold (L, M, H) 7.4: pH 7.4 (HEPES). Format: physicochemical. The method in brief: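 Solubility class (high >250 μM, moderate 31.3–250 μM, low <31.3 μM) comes from the concentration where absorbance reaches a 0.01 threshold, averaged across 490/535/650 nm. Samples were compound dilutions from DMSO stock, 1 μL into 99 μL buffer at pH 1.5, 4.5, 6.8 or 7.4.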

The mark [8] stands for this setting: read-out: Cyp IC50 1A2, CYP1A2, substrate CEC.
Where [9] appears, read: read-out: Cyp IC50 3A4(BQ), CYP3A4, substrate BQ.

Sequence of CYP2D6 (P10635 whole entry): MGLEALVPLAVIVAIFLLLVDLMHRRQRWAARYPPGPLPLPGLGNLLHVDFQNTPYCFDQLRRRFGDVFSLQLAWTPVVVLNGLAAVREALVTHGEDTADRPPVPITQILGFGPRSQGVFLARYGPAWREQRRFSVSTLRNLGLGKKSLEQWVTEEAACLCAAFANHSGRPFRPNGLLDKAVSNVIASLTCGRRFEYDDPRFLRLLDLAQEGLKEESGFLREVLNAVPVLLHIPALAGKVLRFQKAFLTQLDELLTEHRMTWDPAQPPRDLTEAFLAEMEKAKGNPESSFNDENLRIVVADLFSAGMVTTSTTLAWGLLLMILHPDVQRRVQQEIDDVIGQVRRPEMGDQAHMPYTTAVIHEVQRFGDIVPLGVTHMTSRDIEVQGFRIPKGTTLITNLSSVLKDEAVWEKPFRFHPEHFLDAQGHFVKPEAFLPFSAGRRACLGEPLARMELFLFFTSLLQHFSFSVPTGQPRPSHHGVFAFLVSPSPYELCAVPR
Sequence of CYP1A2 (P05177 whole entry): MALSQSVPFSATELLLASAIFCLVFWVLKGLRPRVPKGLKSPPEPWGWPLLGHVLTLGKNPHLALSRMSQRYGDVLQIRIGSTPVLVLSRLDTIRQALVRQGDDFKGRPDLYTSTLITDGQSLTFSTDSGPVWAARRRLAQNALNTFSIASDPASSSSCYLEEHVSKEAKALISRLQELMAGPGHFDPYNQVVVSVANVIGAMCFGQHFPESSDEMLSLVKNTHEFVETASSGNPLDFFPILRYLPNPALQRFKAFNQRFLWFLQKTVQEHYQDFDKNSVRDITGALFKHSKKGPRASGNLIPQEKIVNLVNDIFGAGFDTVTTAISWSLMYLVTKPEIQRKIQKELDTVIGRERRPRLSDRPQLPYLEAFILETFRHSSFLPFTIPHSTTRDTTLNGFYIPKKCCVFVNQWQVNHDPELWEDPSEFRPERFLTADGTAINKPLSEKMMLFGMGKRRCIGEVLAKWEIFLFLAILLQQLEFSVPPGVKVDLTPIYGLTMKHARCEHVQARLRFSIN
Sequence of CYP2C9 (P11712 whole entry): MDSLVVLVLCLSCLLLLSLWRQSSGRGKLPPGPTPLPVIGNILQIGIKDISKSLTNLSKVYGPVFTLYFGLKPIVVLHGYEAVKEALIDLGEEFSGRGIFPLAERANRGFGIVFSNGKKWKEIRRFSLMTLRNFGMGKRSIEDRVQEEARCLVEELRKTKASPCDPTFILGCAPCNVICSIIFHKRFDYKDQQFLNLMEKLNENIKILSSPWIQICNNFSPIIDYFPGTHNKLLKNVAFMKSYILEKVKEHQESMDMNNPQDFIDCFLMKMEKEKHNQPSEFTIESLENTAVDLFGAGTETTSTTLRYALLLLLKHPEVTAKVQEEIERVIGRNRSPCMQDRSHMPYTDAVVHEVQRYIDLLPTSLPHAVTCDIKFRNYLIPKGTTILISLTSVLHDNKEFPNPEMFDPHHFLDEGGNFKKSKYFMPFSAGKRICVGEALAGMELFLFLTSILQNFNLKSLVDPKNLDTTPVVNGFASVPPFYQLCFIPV
Sequence of CYP3A4(BFC) (P08684 whole entry): as the sequence (P08684 whole entry) above

`CC(C)Nc1ncnc2[nH]cc(C(=O)c3c(F)ccc(NS(=O)(=O)c4ccccc4F)c3F)c12` [P-1073, N-[2,4-Difluoro-3-(4-isopropylamino-7H-pyrrolo[2,3-d]pyrimidine-5-carbonyl)-phenyl]-2-fluoro-benzenesulfonamide]: the IC50 in series [1], in series [2], in series [3] (setting [8]), in series [4], in series [5] and in series [6] (setting [9]) was greater than 10 µM in each case. In addition, the “turbidity threshold (L, M, H) 1.4” value in series [7] is listed as “M (moderate solubility if the threshold concentration is 31.3 μM to 250 μM)”. The “turbidity threshold (L, M, H) 4.5” value in series [7] is “L (low solubility if the threshold concentration is <31.3 μM)”. Moreover, in series [7], the “turbidity threshold (L, M, H) 6.8” value is given as “L (low solubility if the threshold concentration is <31.3 μM)”. Moreover, the “turbidity threshold (L, M, H) 7.4” value in series [7] is recorded as “L (low solubility if the threshold concentration is <31.3 μM)”.
Turning to `CCCS(=O)(=O)Nc1ccc(F)c(C(=O)c2c[nH]c3ncnc(Nc4ccccn4)c23)c1F` [P-1077, Propane-1-sulfonic acid {2,4-difluoro-3-[4-(pyridin-2-ylamino)-7H-pyrrolo[2,3-d]pyrimidine-5-carbonyl]-phenyl}-amide], the IC50 in series [1] was greater than 10 µM; in series [2], greater than 10 µM; in series [3] (human, 15 min), greater than 10 µM; in series [4] it was greater than 10 µM; in series [5], greater than 10 µM; in series [6] (setting [9]) it was greater than 10 µM. Besides, the “turbidity threshold (L, M, H) 1.4” value in series [7] was “H (high solubility if the threshold concentration is >250 μm)”. For the same compound, the “turbidity threshold (L, M, H) 4.5” value in series [7] is given as “L (low solubility if the threshold concentration is <31.3 μM)”. For the same compound, the “turbidity threshold (L, M, H) 6.8” value in series [7] is reported as “L (low solubility if the threshold concentration is <31.3 μM)”. Moreover, in series [7], the “turbidity threshold (L, M, H) 7.4” value is given as “L (low solubility if the threshold concentration is <31.3 μM)”.
For `CCCS(=O)(=O)Nc1ccc(F)c(C(=O)c2c[nH]c3ncnc(Nc4cccnc4)c23)c1F` [P-1078, Propane-1-sulfonic acid {2,4-difluoro-3-[4-(pyridin-3-ylamino)-7H-pyrrolo[2,3-d]pyrimidine-5-carbonyl]-phenyl}-amide], the IC50 was greater than 10 µM in series [1]; less than 5 µM in series [2]; greater than 10 µM in series [3] (human, 15 min); greater than 10 µM in series [4]; greater than 10 µM in series [5]; 5 to 10 µM in series [6]. In series [7], the “turbidity threshold (L, M, H) 1.4” value is reported as “M (moderate solubility if the threshold concentration is 31.3 μM to 250 μM)”. Further, the “turbidity threshold (L, M, H) 4.5” value in series [7] is “L (low solubility if the threshold concentration is <31.3 μM)”. Moreover, the “turbidity threshold (L, M, H) 6.8” value in series [7] is “L (low solubility if the threshold concentration is <31.3 μM)”. In addition, in series [7], the “turbidity threshold (L, M, H) 7.4” value is listed as “L (low solubility if the threshold concentration is <31.3 μM)”.
Regarding `CCCS(=O)(=O)Nc1ccc(F)c(C(=O)c2c[nH]c3ncnc(NCC4CC4)c23)c1F` [P-1079, Propane-1-sulfonic acid {3-[4-(cyclopropylmethyl-amino)-7H-pyrrolo[2,3-d]pyrimidine-5-carbonyl]-2,4-difluoro-phenyl}-amide], the IC50 was greater than 10 µM in series [1]; greater than 10 µM in series [2]; greater than 10 µM in series [3] (human, 15 min); greater than 10 µM in series [4]; greater than 10 µM in series [5]; greater than 10 µM in series [6] (setting [9]). Besides, the “turbidity threshold (L, M, H) 1.4” value in series [7] is “M (moderate solubility if the threshold concentration is 31.3 μM to 250 μM)”. Besides, the “turbidity threshold (L, M, H) 4.5” value in series [7] is “L (low solubility if the threshold concentration is <31.3 μM)”. In series [7], the “turbidity threshold (L, M, H) 6.8” value is listed as “L (low solubility if the threshold concentration is <31.3 μM)”. In addition, the “turbidity threshold (L, M, H) 7.4” value in series [7] was “L (low solubility if the threshold concentration is <31.3 μM)”.
Take `CCCS(=O)(=O)Nc1ccc(F)c(C(=O)c2c[nH]c3ncnc(NC4CCCC4)c23)c1F` [P-1081, Propane-1-sulfonic acid [3-(4-cyclopentylamino-7H-pyrrolo[2,3-d]pyrimidine-5-carbonyl)-2,4-difluoro-phenyl]-amide]: the IC50 in series [1] was greater than 10 µM; in series [2] it was greater than 10 µM; in series [3] (human, 15 min), greater than 10 µM; in series [4], greater than 10 µM; in series [5] it was greater than 10 µM; in series [6] (setting [9]), greater than 10 µM. Besides, the “turbidity threshold (L, M, H) 1.4” value in series [7] is recorded as “H (high solubility if the threshold concentration is >250 μm)”. Besides, the “turbidity threshold (L, M, H) 4.5” value in series [7] was “L (low solubility if the threshold concentration is <31.3 μM)”. Moreover, the “turbidity threshold (L, M, H) 6.8” value in series [7] was “L (low solubility if the threshold concentration is <31.3 μM)”. Besides, in series [7], the “turbidity threshold (L, M, H) 7.4” value is given as “L (low solubility if the threshold concentration is <31.3 μM)”.
As to `CCCS(=O)(=O)Nc1ccc(F)c(C(=O)c2c[nH]c3ncnc(Nc4cn(C)nc4C)c23)c1F` [P-1100, Propane-1-sulfonic acid {3-[4-(1,3-dimethyl-1H-pyrazol-4-ylamino)-7H-pyrrolo[2,3-d]pyrimidine-5-carbonyl]-2,4-difluoro-phenyl}-amide], the IC50 in series [1], in series [2], in series [3] (setting [8]), in series [4], in series [5] and in series [6] (setting [9]) was greater than 10 µM each time. In series [7], the “turbidity threshold (L, M, H) 1.4” value is “M (moderate solubility if the threshold concentration is 31.3 μM to 250 μM)”. Besides, in series [7], the “turbidity threshold (L, M, H) 4.5” value was “M (moderate solubility if the threshold concentration is 31.3 μM to 250 μM)”. In series [7], the “turbidity threshold (L, M, H) 6.8” value is recorded as “L (low solubility if the threshold concentration is <31.3 μM)”. The “turbidity threshold (L, M, H) 7.4” value in series [7] is reported as “L (low solubility if the threshold concentration is <31.3 μM)”.
As for `CCn1cc(Nc2ncnc3[nH]cc(C(=O)c4c(F)ccc(NS(=O)(=O)c5cc(F)ccc5F)c4F)c23)cn1` [P-1142, N-{3-[4-(1-Ethyl-1H-pyrazol-4-ylamino)-7H-pyrrolo[2,3-d]pyrimidine-5-carbonyl]-2,4-difluoro-phenyl}-2,5-difluoro-benzenesulfonamide], the IC50 was greater than 10 µM in series [1]; greater than 10 µM in series [2]; greater than 10 µM in series [3] (human, 15 min); greater than 10 µM in series [4]; greater than 10 µM in series [5]; greater than 10 µM in series [6] (setting [9]).
With `COc1cccc(Nc2ncnc3[nH]cc(C(=O)c4c(F)ccc(NS(=O)(=O)c5ccccc5F)c4F)c23)c1` [P-1149, N-{2,4-Difluoro-3-[4-(3-methoxy-phenylamino)-7H-pyrrolo[2,3-d]pyrimidine-5-carbonyl]-phenyl}-2-fluoro-benzenesulfonamide], the IC50 in series [1] was greater than 10 µM; in series [2], greater than 10 µM; in series [3] (human, 15 min) it was greater than 10 µM; in series [4], greater than 10 µM; in series [5] it was greater than 10 µM; in series [6] (setting [9]), greater than 10 µM.
As for `COCCNc1ncnc2[nH]cc(C(=O)c3c(F)ccc(NS(=O)(=O)c4ccccc4F)c3F)c12` [P-1150, N-{2,4-Difluoro-3-[4-(2-methoxy-ethylamino)-7H-pyrrolo[2,3-d]pyrimidine-5-carbonyl]-phenyl}-2-fluoro-benzenesulfonamide], the IC50 in series [1] is greater than 10 µM; in series [2], greater than 10 µM; in series [3] (human, 15 min), greater than 10 µM; in series [4] it was greater than 10 µM; in series [5], greater than 10 µM; in series [6] (setting [9]), greater than 10 µM.
For the compound `CCn1cc(Nc2ncnc3[nH]cc(C(=O)c4c(F)ccc(NS(=O)(=O)c5ccccc5F)c4F)c23)cn1` [P-1153, N-{3-[4-(1-Ethyl-1H-pyrazol-4-ylamino)-7H-pyrrolo[2,3-d]pyrimidine-5-carbonyl]-2,4-difluoro-phenyl}-2-fluoro-benzenesulfonamide], the IC50 in series [1] was greater than 10 µM; in series [2], greater than 10 µM; in series [3] (human, 15 min), greater than 10 µM; in series [4], greater than 10 µM; in series [5], greater than 10 µM; in series [6] (setting [9]) it was greater than 10 µM.
